Reference: patent US20220402917A1, “COMPOUND AS SMALL MOLECULE INHIBITOR PD-1/PD-L1 AND APPLICATION THEREOF” (MEDSHINE DISCOVERY INC., priority 2019, published 2022)
pIC50: −log10 of the molar value.

Tests used:
[1] = target: PD1/PD-L1 (Homo sapiens, UniProt Q9NZQ7); assay: NFAT activity test (TCR Activitor/PD-L1 CHO cells with PD-1/NFAT Reporter-Jurkat cells); format: cell-based; parameters: host or cells: TCR Activitor/PD-L1 CHO cells; PD-1/NFAT Reporter-Jurkat cells; conditions: TCR Activitor/PD-L1 CHO cells + PD-1/NFAT Reporter-Jurkat cells, 5 hours, luciferase; for pIC50: read-out: IC50, inhibitory activity on PD1/PD-L1 binding (NFAT activity test)
Text: Experimental Example 3: NFAT Activity Test
The engineered T cell expresses PD-1 molecules and T cell receptor (TCR) on the surface, which can activate the NFAT signaling pathway of T cells after co-culturing with engineered antigen presenting cells (APCs). Expression of PD-L1 molecules on APCs can effectively attenuate the NFAT signaling pathway in T cells. PD-L1 inhibitors can be used effectively block the PD-1/PD-L1 regulatory mechanism, thereby reversing the weakened NFAT signaling pathway. After being pretreated with APC, the small molecule is co-cultured with T cells, then the expression of luciferase was detected to indirectly reflect the activation of the NFAT pathway in T cells.
The PD1/PD-L1 NFAT detection kit was purchased from BPS Biosciences. Birght-Glo reagent was purchased from Promega. Nivo multi-label analyzer (PerkinElmer).
The TCR Activitor/PD-L1 CHO cells with a growth confluence of 80% were plated into the plate at 35,000 cells per well and placed in a 37° C. cell culture incubator overnight; the compounds to be tested were diluted 5-fold to the 8th concentration, from 20 μM to 0.25 nM, and the DMSO concentration was 2%, a double-well experiment was set up. The TCR Activitor/PD-L1 CHO cell supernatant was discarded, 50 μl of compound working solution was added to each well, incubated at 37° C. for 30 minutes; after the incubation was completed, 50 μL of PD-1/NFAT Reporter-Jurkat cell suspension with a concentration of 4*10^5 cells/mL was added to each well, incubated at 37° C. for 5 hours. After the incubation was completed, 100 μL Bright-Glo was added to each well, and after mixing, the chemiluminescence signal was detected by a Nivo multi-label analyzer.
Using the equation (sample−Min)/(Max−Min)×100% to convert the raw data into inhibition rate, and the IC50 value can be obtained by curve fitting with four parameters (obtained from log(inhibitor) vs. response—Variable slope mode in GraphPad Prism). Table 3 provides the inhibitory activity of the compounds of the examples of the present disclosure on PD1/PD-L1 binding.

[2] = target: T1, PD-L1 in MDA-MR-231 cells (Homo sapiens, UniProt Q9NZQ7); assay: Effect on expression level of PD-L1 in MDA-MR-231 cells (FACS); format: cell-based; conditions: 24 hours incubation, FACS detection of cell surface PD-L1
T1 construct: endogenous in cells; host or cells: MDA-MB-231
Description: Experimental Example 2: Using MDA-MR-231 Cells to Detect the Effect of Compounds on the Expression Level of PD-L1
The use of a triple-negative breast cancer cell line (MDA-MB-231) is an indirect method to assess PD-L1 endocytosis. PD-L1 molecules on the cell surface can be degraded by lysosomal and proteasome pathways, and small molecule inhibitors are added to induce PD-L1 endocytosis. After co-incubating small molecules with MDA-MB-231 cells for 24 hours, flow cytometry (Fluorescence-activated Cell Sorting, FACS) is used to detect the content of PD-L1 on the cell surface, which can indirectly reflect the effect of small molecule-induced PD-L1 endocytosis. Flow cytometry (FACS) is used to detect the effect of the compounds of the present disclosure on the expression level of PD-L1 in MDA-MR-231 cells.
Phosphate buffer (DPBS), 1640 medium, penicillin-streptomycin, fetal bovine serum, non-essential amino acids, 2-hydroxy-1-ethanethiol (2-ME), human interferon γ, LIVE/DEAD staining solution, staining buffer, fixation buffer, 0.25% trypsin, EDTA, anti-human PD-L1, anti-human PD-L1 isotype.
1640 complete medium preparation: 50 mL of fetal bovine serum, 5 mL of non-essential amino acids, 5 mL of penicillin-streptomycin and 0.5 mL of 2-hydroxy-1-ethanethiol were added to 439.5 mL of 1640 medium, and evenly mixed.
10 mM EDTA preparation: 1 mL of 0.5M EDTA was added to 49 mL of DPBS, and evenly mixed.
1) MDA-MB-231 cell counting and plating: The culture flask was taken out, the medium was removed and the culture flask was rinsed once with DPBS. After the culture flask was rinsed, 3 mL of 0.25% trypsin was added to the culture flask and the culture flask was placed in a 37° C. incubator for 1.5 min. The culture flask was taken out, 9 mL of 1640 complete medium was added to stop the reaction, the cells was transferred to a 50 mL centrifuge tube, and centrifuged at 1000 rpm for 5 min at 37° C. An appropriate volume of medium was added to re-suspend the cells according to the number of cells, and the number of cells was counted with a cell counter. The cell concentration was adjusted to 5×10^5 cells/mL with medium. Planking: A volume of 200 μL of cell suspension was added to each well of a 96-well plate, ensure that the number of cells in each well was 1×10^5. The cells were incubated overnight in an incubator. 2) Drug incubation: 100-fold dilution of compounds were prepared, and the drug was subjected to a 5-fold gradient dilution. 2 μL of each 100-fold dilution of compounds were added to each well. The cells were incubated in an incubator at 37° C. for 24 hours. 3) PD-L1 cell staining and FACS detection: the culture plate was taken out and the supernatant medium was discarded. The cells were washed once with 200 μL 1×PBS. 100 μL of EDTA (final concentration of 10 mM) was added to the cell suspension, and the cell suspension was treated at 37° C. for 10 min. Then after the cell suspension was centrifuged at 1500 rpm for 5 min, the cell suspension was washed once with 200 μL of staining solution. Staining: anti-human PD-L1 (2 μL per well) and LIVE/DEAD staining solution (1:1000) were diluted in staining solution, 50 μL of the staining solution was added to each well, and the staining was conducted at 4° C. for 30 min. Then the solution was washed twice with 200 μL of staining solution. Fixation: 100 μL of fixing solution was added to each well, the fixation was conducted at 4° C. for 15 min. The solution was then washed twice with 200 μL of staining solution, and 150 μL of solution was added to re-suspend the cells, followed by FACS detection.
Table 2 provides the effects of the compounds of the examples of the present disclosure on the expression level of PD-L1 in MDA-MR-231 cells.

T1 sequence (Q9NZQ7 19-290): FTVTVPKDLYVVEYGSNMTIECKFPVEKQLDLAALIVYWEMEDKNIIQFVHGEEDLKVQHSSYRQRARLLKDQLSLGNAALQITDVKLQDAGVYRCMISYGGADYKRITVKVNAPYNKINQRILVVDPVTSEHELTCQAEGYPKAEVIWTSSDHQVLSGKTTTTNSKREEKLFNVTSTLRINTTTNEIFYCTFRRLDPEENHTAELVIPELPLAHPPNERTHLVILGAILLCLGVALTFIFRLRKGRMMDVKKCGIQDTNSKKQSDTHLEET
Chain of PD1/PD-L1 (Q9NZQ7 19-290): as above

Structure (SMILES) | Maximum effect (induction fold) [1] [induction fold] | pIC50 [1] | pIC50 [2]
COc1nc(-c2cccc(-c3cccc(NC(=O)c4cc(OC(F)F)c5c(n4)CN(CCO)CC5)c3Cl)c2Cl)cnc1CN1CC2(CC(O)C2)C1 [Compound 62] | 4.37 | 7.87 | –
COc1nc(-c2cccc(-c3cccc(NC(=O)c4cc(C)c5c(n4)CN(CCO)CC5)c3Cl)c2Cl)cnc1CN1CC2(CC(O)C2)C1 [Compound 39] | 4.62 | 7.92 | 8.26
COc1nc(-c2cccc(-c3cccc(NC(=O)c4cc(C)c5c(n4)CN(CCO)CC5)c3Cl)c2Cl)cnc1CN1CC(CO)C1 [Compound 35] | 4.44 | 7.76 | 8.29
COc1nc(-c2cccc(-c3cccc(NC(=O)c4cc(C)c5c(n4)CN(CCO)CC5)c3Cl)c2Cl)cnc1CN1CC(C)(O)C1 [Compound 25] | 3.39 | 7.53 | 8.00
COc1nc(-c2cccc(-c3cccc(NC(=O)c4cc(C)c5c(n4)CN(CCO)CC5)c3Cl)c2Cl)cnc1CN1CCC(CO)C1 (stereo not drawn) [Compound 33] | 4.14 | 7.72 | 8.16
COc1nc(-c2cccc(-c3cccc(NC(=O)c4cc(C)c5c(n4)CN(CCO)CC5)c3Cl)c2Cl)cnc1CNCC1CCC(=O)N1 (stereo not drawn) [Compound 38] | 4.40 | 7.29 | 8.05
COc1nc(-c2cccc(-c3cccc(NC(=O)c4cc(C#N)c5c(n4)CN(CCO)CC5)c3Cl)c2Cl)cnc1CN1CC2(CC(O)C2)C1 [Compound 57] | 4.42 | 7.39 | –
COc1nc(-c2cccc(-c3cccc(NC(=O)c4cc(OC(F)F)c5c(n4)CN(CCO)CC5)c3Cl)c2Cl)cnc1CN1CC(O)C1 [Compound 48] | 3.80 | 7.67 | 8.05
COc1nc(-c2cccc(-c3cccc(NC(=O)c4cc(C)c5c(n4)CN(CC(C)(C)O)CC5)c3Cl)c2Cl)cnc1CN1CC(O)C1 [Compound 28] | 3.63 | 7.46 | –
COc1nc(-c2cccc(-c3cccc(NC(=O)c4cc(OC(F)F)c5c(n4)CN(CCO)CC5)c3Cl)c2Cl)cnc1CN1CC(C)(O)C1 [Compound 63] | 6.40 | 6.85 | –
COc1nc(-c2cccc(-c3cccc(NC(=O)c4cc(C)c5c(n4)CN(CC(C)O)CC5)c3Cl)c2Cl)cnc1CN1CC(O)C1 (stereo not drawn) [Compound 44] | 5.15 | 6.69 | –
COc1nc(-c2cccc(-c3cccc(NC(=O)c4cc(C)c5c(n4)CN(CCO)CC5)c3Cl)c2Cl)cnc1CN1CCCC1CO (stereo not drawn) [Compound 40] | 3.72 | 7.34 | 7.65
COc1nc(-c2cccc(-c3cccc(NC(=O)c4cc(C#N)c5c(n4)CN(CCO)CC5)c3Cl)c2Cl)cnc1CNCCO [Compound 59] | 5.35 | 6.78 | –
COc1nc(-c2cccc(-c3cccc(NC(=O)c4cc(C#N)c5c(n4)CN(CCO)CC5)c3Cl)c2Cl)cnc1CN1CC(CO)C1 [Compound 60] | 4.95 | 7.26 | –
COc1cc(C(=O)Nc2cccc(-c3cccc(-c4cnc(CN5CCC(CO)C5)c(OC)n4)c3Cl)c2Cl)nc2c1CCN(CCO)C2 (stereo not drawn) [Compound 56] | 2.75 | 8.00 | –
COc1nc(-c2cccc(-c3cccc(NC(=O)c4cc(OC(F)F)c5c(n4)CN(CCO)CC5)c3Cl)c2Cl)cnc1CN1CCC(CO)C1 (stereo not drawn) [Compound 64] | 3.98 | 7.78 | –
COc1nc(-c2cccc(-c3cccc(NC(=O)c4cc(C)c5c(n4)CCN(CCO)C5)c3Cl)c2Cl)cnc1CN1CC(O)C1 [Compound 43] | 5.16 | 6.62 | –
COc1cc(C(=O)Nc2cccc(-c3cccc(-c4cnc(CNCCO)c(OC)n4)c3Cl)c2Cl)nc2c1CCN(CCO)C2 [Compound 54] | 3.91 | 7.41 | –
COc1nc(-c2cccc(-c3cccc(NC(=O)c4cc(OCC#N)c5c(n4)CN(CCO)CC5)c3Cl)c2Cl)cnc1CN1CC(O)C1 [Compound 52] | 4.74 | 7.29 | –
COc1nc(-c2cccc(-c3cccc(NC(=O)c4cc(C#N)c5c(n4)CN(CCO)CC5)c3Cl)c2Cl)cnc1CN1CC(C)(O)C1 [Compound 58] | 5.01 | 6.99 | –
COc1cc(C(=O)Nc2cccc(-c3cccc(-c4cnc(CN5CC(CO)C5)c(OC)n4)c3Cl)c2Cl)nc2c1CCN(CCO)C2 [Compound 55] | 4.56 | 7.60 | –
COc1nc(-c2cccc(-c3cccc(NC(=O)c4cc(C)c5c(n4)CN(CC4(CO)CC4)CC5)c3Cl)c2Cl)cnc1CN1CC(O)C1 [Compound 29] | 3.52 | 7.28 | –
COc1nc(-c2cccc(-c3cccc(NC(=O)c4cc(C#N)c5c(n4)CN(CCO)CC5)c3Cl)c2Cl)cnc1CN1CCC(CO)C1 (stereo not drawn) [Compound 61] | 4.99 | 7.27 | –
Cc1cc(C(=O)Nc2cccc(-c3cccc(NC(=O)c4ccc(CNCCO)cn4)c3C)c2Cl)nc2c1CCN(C1CCNCC1)C2 [Compound 14] | – | – | 7.01
COc1nc(-c2cccc(-c3cccc(NC(=O)c4cc(C)c5c(n4)CN(CCO)CC5)c3Cl)c2Cl)ccc1CN1CC(O)C1 [Compound 37] | – | – | 7.55
COc1cc(C(=O)Nc2cccc(-c3cccc(-c4cnc(CN5CC6(CC(O)C6)C5)c(OC)n4)c3Cl)c2Cl)nc2c1CCN(CCO)C2 [Compound 53] | 3.81 | 7.86 | –
